From article PMC4032190 (Journal of medicinal chemistry, 2014)

How the values were obtained:
XBP-1s expression [1] = test: Inhibition of XBP-1s expression in LPS-stimulated wild-type mouse B cells; assay type: cell-based; details: immunoblot
[2] = target: recombinant human IRE-1 (RNase activity) (Homo sapiens, UniProt O75460); test: In vitro IRE-1 RNase FRET-suppression assay; assay type: biochemical; details: up to 20 µM
[3] = Chemical stability in FRET-suppression assay buffer; details: rt, over 12 hours, LCMS
Mino cells = test: PARP cleavage; assay type: cell-based, human; details: 50 µM, 72 h, immunoblot
Jeko cells = test: PARP cleavage; assay type: cell-based, human; details: 50 µM, 72 h, immunoblot
XBP-1s expression [4] = test: Inhibition of XBP-1s expression in Jeko cells; assay type: cell-based, human; details: 20 µM, 24 h, immunoblot
XBP-1s expression [5] = test: Inhibition of XBP-1s expression in Mino cells; assay type: cell-based, human; details: 20 µM, 24 h, immunoblot

Sequence of recombinant human IRE-1 (RNase activity) (O75460 547-977): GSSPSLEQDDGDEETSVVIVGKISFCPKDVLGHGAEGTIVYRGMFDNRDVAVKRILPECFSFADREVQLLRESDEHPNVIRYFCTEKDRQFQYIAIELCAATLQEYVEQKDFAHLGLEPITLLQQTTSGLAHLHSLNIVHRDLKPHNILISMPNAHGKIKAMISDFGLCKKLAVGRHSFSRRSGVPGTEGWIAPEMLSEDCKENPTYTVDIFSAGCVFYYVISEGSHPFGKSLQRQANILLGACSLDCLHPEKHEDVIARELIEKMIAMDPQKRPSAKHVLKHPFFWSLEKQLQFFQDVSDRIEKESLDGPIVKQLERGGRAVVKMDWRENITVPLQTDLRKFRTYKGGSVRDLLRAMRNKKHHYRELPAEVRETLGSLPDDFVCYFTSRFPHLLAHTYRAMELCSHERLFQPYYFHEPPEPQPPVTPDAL

O=Cc1c(O)ccc2ccccc12 [Compound 2]
inhibition of XBP-1s expression (XBP-1s expression [1]; 50 µM): strong inhibition

Cc1cc(=O)oc2c(C=O)c(O)ccc12 [Compound 5]
inhibition of XBP-1s expression (XBP-1s expression [1]; 20 µM, 24 h): strong inhibition

NS(=O)(=O)c1cccs1 [Compound 8, reference compound]
IRE-1 RNase inhibition (in words) [2]: no appreciable inhibition

C=CCOC(=O)N1CCc2c(c(=O)oc3c(C4OCCCO4)c(O)ccc23)C1 [Compound 24, Allyl 7-(1,3-dioxan-2-yl)-8-hydroxy-5-oxo-4,5-dihydro-1H-chromeno[3,4-c]pyridine-3(2H)-carboxylate]
decomposition of the 1,3-dioxane moiety [3]: no significant decomposition

C=CCOC(=O)N1CCc2c(c(=O)oc3c(C=O)c(OCc4ccccc4)ccc23)C1 [Compound 27, Allyl 7-formyl-8-benzyloxy-5-oxo-4,5-dihydro-1H-chromeno[3,4-c]pyridine-3(2H)-carboxylate]
IRE-1 RNase inhibition (in words) [2]: complete loss of potency below 20 µM

CN1CCc2c(c(=O)oc3c(C=O)c(O)ccc23)C1 [Compound 30, 8-Hydroxy-3-methyl-5-oxo-2,3,4,5-tetrahydro-1H-chromeno[3,4-c]pyridine-7-carbaldehyde]
PARP cleavage (Mino cells): more strongly than either 21b or 5
PARP cleavage (Jeko cells): more strongly than either 21b or 5

C=C(C)CN1CCc2c(c(=O)oc3c(C=O)c(O)ccc23)C1 [Compound 33, 8-Hydroxy-3-(2-methylallyl)-5-oxo-2,3,4,5-tetrahydro-1H-chromeno[3,4-c]pyridine-7-carbaldehyde]
suppression of XBP-1s expression (XBP-1s expression [4]): significant activity
suppression of XBP-1s expression (XBP-1s expression [5]): significant activity
